Reference: ChEMBL document CHEMBL1155731, “Montipyridine, a new pyridinium alkaloid from the stony coral montipora species” (2001)

Key:
Type in all cases: functional
Conditions in all cases: read-out: ED50 (the source's name)
[1] = tested on: A549; assay: Cytotoxicity against human A549 cells
[2] = tested on: SK-OV-3; assay: Cytotoxicity against human SKOV3 cells
[3] = tested on: XF498; assay: Cytotoxicity against human XF498 cells
[4] = tested on: SK-MEL-2; assay: Cytotoxicity against human SK-MEL-2 cells
[5] = tested on: HCT-15; assay: Cytotoxicity against human HCT15 cells

Measured: EC50

C=CCCCCCCCc1cc(OC)cc[n+]1CC(=O)[O-] [MONTIPYRIDINE]
> 30 µg/mL: [1] | [2] | [3] | [4] | [5]
